In US20050026850A1, “Combination of dehydroepiandrosterone or dehydroepiandrosterone-sulfate with a tyrosine kinase inhibitor, delta opioid receptor antagonist, neurokinin receptor antagonist, or VCAM inhibitor for treatment of asthma or chronic obstructive pulmonary disease” (priority 2003, published 2005):
Values joined by “and” are separate entries in the source; they are usually repeats but may differ in a detail not shown here. Equal values may be shown once.

Legend:
[1] = tested on: rat peritoneal mast cells; experiment: Compound 48/80 histamine release from rat peritoneal mast cells; format: cell-based; settings: for % Inhibition of Histamine Release: DHEA-S 0; for effect on compound 48/80 induced mast cell degranulation: antagonist alone, 1-100 nM
[2] = Solid-state stability with and without lactose at 50° C. (DHEA formation by HPLC); format: physicochemical; settings: for Percent DHEA formed from DHEA-S Dihydrate / DHEA % formed from Anhydrous DHEA-S: Control, neat, sealed, 25° C.
Excerpt: These conditions were used to stress the formulation in order to predict its long-term stability results. […] The primary degradant is DHEA. […] The materials on accelerated storage become more cohesive with time as evidenced by clumping during sample weighing for chemical analysis. […] This is a considerable disadvantage since lactose is the most commonly used inhalation excipient for dry powder formulations. Continuing with the virtually anhydrous form would mean limiting formulations to neat powder or undertaking more comprehensive safety studies to use a novel excipient.

[3] = tested on: Intracellular adenosine; experiment: In vivo effect on adenosine levels in various rat tissues
[4] = HPLC analysis of drug degradation during jet milling micronization; format: physicochemical; settings: single-pass and double-pass jet milled, HPLC peak area versus unmilled standard
Procedure: Two vials (A; single-pass; 150 mg) and (B double-pass; 600 mg) of the micronized drug were available for determining drug degradation during jet milling micronization. […] The chromatographic peak area for the HPLC assay of the unmilled drug standard solution (10 mg/ml) gave a value of 23,427. […] The chromatographic peak areas for vials A and B were 11,979 and 11,677, respectively.

[5] = Nebulizer studies; settings: 0.12% NaCl (20 mM Cl−), Pari LC Plus nebulizer, 5 mL
Excerpt: The collection apparatus, nebulizer, and imp actor are rinsed with mobile phase and assayed by HPLC.

[6] = Short-term solution stability of DHEA-S formulation; format: physicochemical; settings: 7.5 mg/mL of DHEA-S in 0.12% NaCl, RT
Procedure: Aliquots of this solution are filled into clear glass vials and stored at RT (24-26° C.) and at 40° C. The samples are checked daily for DHEA-S content, DHEA content, and appearance. For each time point, duplicate samples are withdrawn and diluted from each vial. […] The study is stopped on day three. […] The solution should easily be stable for the day of reconstitution in a clinical trial. The following section describes the aerosol properties of this formulation.

[7] = Solubility of DHEA-S; format: physicochemical; settings: 15° C., 20 mM Na+, from Ksp by quadratic formula
Excerpt: Inhalation of pure water can produce a cough stimulus. […] The temperature effect is weaker at high NaCl concentrations.

[8] = tested on: NK1; settings: printed under the compound name in the table, no method or source; cited from earlier work
[9] = tested on: HT-29 SF cells; experiment: DHEA effect on cell growth; format: cell-based, human
[10] = tested on: HT-29 SF cells; experiment: DHEA effect on cell cycle (flow cytometry); format: cell-based, human
Procedure: Cells were plated at 10^5/60-mm dish in duplicate. […] Cultures were trypsinized following 0, 24, 48, or 74 hours and fixed and stained using a modification of a procedure of Bauer et al., Cancer Res. 46, 3173-3178 (1986). Briefly, cells were collected by centrifugation and resuspended in cold phosphate-buffered saline. Cells were fixed in 70% ethanol, washed, and resuspended in phosphate-buffered saline.
After 24, 48, and 72 hours, cells were harvested, fixed in ethanol, and stained with propidium iodide, and the DNA content/cell was determined by flow cytometric analysis. The percentage of cells in G1, S, and G2M phases was calculated using the Cellfit cell cycle analysis program. S phase is marked by a quadrangle for clarity. Representative histograms from duplicate determinations are shown. The experiment was repeated three times.

C=CCN1CC[C@]23c4c5ccc(O)c4O[C@H]2C(=O)CC[C@@]3(O)[C@H]1C5 [Naloxone, naloxone]
% Inhibition of Histamine Release ([1]; antagonist 1 nM): −1%
% Inhibition of Histamine Release ([1]; antagonist 10 nM): −1%
% Inhibition of Histamine Release ([1]; antagonist 100 nM): −2%
effect on compound 48/80 induced mast cell degranulation [1]: minimal effect (if any)

CC12CCC3C(CC=C4CC(OS(=O)(=O)[O-])CCC43C)C1CCC2=O.[Na+] (centres unmarked) [DHEA-S Dihydrate]
Percent DHEA formed from DHEA-S Dihydrate at 50° C. ([2]; 1 week): 0.216%
Percent DHEA formed from DHEA-S Dihydrate at 50° C. ([2]; 3 weeks): 0.317%
Percent DHEA formed from DHEA-S Dihydrate at 50° C. ([2]; 4 weeks): 0.374%
Percent DHEA formed from DHEA-S Dihydrate ([2]; 4 weeks): 0.218%
Percent DHEA formed from DHEA-S Dihydrate ([2]; Time (Weeks), initial value): 0.213%

Nc1nc(=O)c2c([nH]1)NCC(CNc1ccc(C(=O)N[C@@H](CCC(=O)O)C(=O)O)cc1)N2C=O (mixture of isomers) [Folinic Acid, Folinic acid]
Intracellular adenosine, Brain ([3]; Fischer 344 rats, once daily 14 days, DHEA 300 mg/kg, methyltestosterone 120 mg/kg, folinic acid 50 mg/kg i.p., mean ± SEM, control 0.5 ± 0.04): 0.72 ± 0.09 nmols/mg protein
effect of folinic acid administered alone on adenosine levels ([3]; rats, folinic acid 50 mg/kg i.p. 14 days): increase in adenosine levels for all organs studied
effect of coadministration of folinic acid on steroid-mediated adenosine depletion ([3]; rats, folinic acid 50 mg/kg i.p. with DHEA or methyltestosterone): completely abrogated steroid-mediated adenosine depletion

C[C@]12CC[C@H](OS(=O)(=O)[O-])CC1=CC[C@@H]1[C@@H]2CC[C@]2(C)C(=O)CC[C@@H]12.[Na+] [DHEA-S, sodium dehydroepiandrostenone sulfate]
drug degradation during jet milling micronization [4]: no detectable degradation of the drug during the jet milling micronization process
highest solution concentration that will not precipitate during nebulization [5]: approximately 7.5 mg/mL
stability of nebulizer formulation [6]: stable for at least one day at RT
calculated DHEA-S solution concentration [7]: 27.5 mM and 10.7 mg/mL

C[C@]12CCC(=O)C=C1CC[C@@H]1[C@@H]2CC[C@@]2(C)[C@H]1CC[C@]2(C)O [Methyltestosterone, methyltestosterone]
Intracellular adenosine, Brain ([3]; rat, in vivo): 0.42 ± 0.06 and 0.32 ± 0.03
Intracellular adenosine, Heart ([3]; rat, in vivo): 8.3 ± 1.0 and 6.0 ± 0.4
effect on tissue adenosine ([3]; rat, in vivo): multi-organ depletion of adenosine

C[C@]12CC[C@H](OS(=O)(=O)[O-])CC1=CC[C@@H]1[C@@H]2CC[C@]2(C)C(=O)CC[C@@H]12.[Na+] [Anhydrous DHEA-S]
DHEA % formed from Anhydrous DHEA-S at 50° C. ([2]; 1 week): 9.817%
DHEA % formed from Anhydrous DHEA-S at 50° C. ([2]; 2 weeks): 14.954%
DHEA % formed from Anhydrous DHEA-S at 50° C. ([2]; 4 weeks): 20.171%
DHEA % formed from Anhydrous DHEA-S ([2]; 1 week): 2.694%
DHEA % formed from Anhydrous DHEA-S ([2]; 2 weeks): 2.370%
DHEA % formed from Anhydrous DHEA-S ([2]; 4 weeks): 2.666%
DHEA % formed from Anhydrous DHEA-S ([2]; Time (Weeks), initial value): 2.774%

CC(C)Oc1cccc(CC(=O)N2CCC[C@](CC[N+]34CCC(c5ccccc5)(CC3)CC4)(c3ccc(Cl)c(Cl)c3)C2)c1 [SR 140333]
% Inhibition of Histamine Release ([1]; antagonist 1 nM): 1%
% Inhibition of Histamine Release ([1]; antagonist 30 nM): −8%
% Inhibition of Histamine Release ([1]; antagonist 100 nM): −5%
effect on compound 48/80 induced mast cell degranulation [1]: minimal effect (if any)
IC50 [8]: 50 nM

C[C@]12CC[C@H](O)CC1=CC[C@@H]1[C@@H]2CC[C@]2(C)C(=O)CC[C@@H]12 [DHEA, 3β-hydroxyandrost-5-en-17-one]
effect on tissue adenosine ([3]; rat, in vivo): multi-organ depletion of adenosine
exposure time after which cell number was reduced compared to controls ([9]; 12.5 μM): 72 h
exposure time after which cell number was reduced compared to controls ([9]; 25 μM): 48 h
exposure time after which cell number was reduced compared to controls ([9]; 50 μM): 48 h
exposure time after which cell number was reduced compared to controls ([9]; 200 μM): 24 h
cell cycle effect (summary) ([10]; 25-200 μM, 24-72 hours): G1 block in HT-29 SF cells in a time-and dose-dependent manner
cell cycle distribution ([10]; 25 or 50 μM, 72 hours): the percentage of cells in G1 phase was increased after 72 hours
